Assay results taken from PubChem BioAssay (NCI).
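Cultured in 96-well plates, cells were exposed to test compound for 48 hours across five concentrations. TGI is the concentration that stops growth completely.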

Columns and labels:
Assay in all cases: DTP human tumour cell line panel, 48 h
UO-31 renal = tested on: UO-31 renal
HL-60(TB) leukemia = tested on: HL-60(TB) leukemia
KM20L2 colon = tested on: KM20L2 colon
COLO 205 colon = tested on: COLO 205 colon
OVCAR-4 ovarian = tested on: OVCAR-4 ovarian
SF-295 CNS = tested on: SF-295 CNS
K-562 leukemia = tested on: K-562 leukemia
NCI-H522 lung = tested on: NCI-H522 lung
M19-MEL melanoma = tested on: M19-MEL melanoma
HT29 colon = tested on: HT29 colon
OVCAR-5 ovarian = tested on: OVCAR-5 ovarian
EKVX NSCLC = tested on: EKVX NSCLC
SK-OV-3 ovarian = tested on: SK-OV-3 ovarian
HCT-116 colon = tested on: HCT-116 colon
U251 CNS = tested on: U251 CNS
SF-268 CNS = tested on: SF-268 CNS
SNB-75 CNS = tested on: SNB-75 CNS
SNB-78 CNS = tested on: SNB-78 CNS
A549 NSCLC = tested on: A549 NSCLC
A498 renal = tested on: A498 renal
DLD-1 colon = tested on: DLD-1 colon
KM12 colon = tested on: KM12 colon
ACHN renal = tested on: ACHN renal
RPMI-8226 leukemia = tested on: RPMI-8226 leukemia
NCI-H23 lung = tested on: NCI-H23 lung
UACC-62 melanoma = tested on: UACC-62 melanoma
SK-MEL-2 melanoma = tested on: SK-MEL-2 melanoma
786-0 renal = tested on: 786-0 renal
SNB-19 CNS = tested on: SNB-19 CNS
M14 melanoma = tested on: M14 melanoma
HOP-62 NSCLC = tested on: HOP-62 NSCLC
HCC-2998 colon = tested on: HCC-2998 colon
SN12C renal = tested on: SN12C renal
NCI-H460 lung = tested on: NCI-H460 lung
DMS 114 small cell lung = tested on: DMS 114 small cell lung
MOLT-4 leukemia = tested on: MOLT-4 leukemia
UACC-257 melanoma = tested on: UACC-257 melanoma
CCRF-CEM leukemia = tested on: CCRF-CEM leukemia
OVCAR-8 ovarian = tested on: OVCAR-8 ovarian
LOX IMVI melanoma = tested on: LOX IMVI melanoma
LXFL 529 NSCLC = tested on: LXFL 529 NSCLC
SF-539 CNS = tested on: SF-539 CNS
SK-MEL-28 melanoma = tested on: SK-MEL-28 melanoma
HOP-18 NSCLC = tested on: HOP-18 NSCLC
HCT-15 colon = tested on: HCT-15 colon
TK-10 renal = tested on: TK-10 renal
RXF 393 renal = tested on: RXF 393 renal
NCI-H226 lung = tested on: NCI-H226 lung
XF 498 CNS = tested on: XF 498 CNS
OVCAR-3 ovarian = tested on: OVCAR-3 ovarian
MALME-3M melanoma = tested on: MALME-3M melanoma
SR leukemia = tested on: SR leukemia
HOP-92 NSCLC = tested on: HOP-92 NSCLC
DMS 273 small cell lung = tested on: DMS 273 small cell lung
SW-620 colon = tested on: SW-620 colon
SK-MEL-5 melanoma = tested on: SK-MEL-5 melanoma
IGROV1 ovarian = tested on: IGROV1 ovarian

`O=C(CC1(O)C(=O)Nc2ccc([N+](=O)[O-])cc21)c1ccc(Br)cc1` (stereo not given) was tested, and the TGI (UO-31 renal) was > 100 µM, the TGI (HL-60(TB) leukemia) was 45.7 µM and the TGI (KM20L2 colon) was > 100 µM. For the same molecule, the TGI (COLO 205 colon) was > 100 µM, the TGI (OVCAR-4 ovarian) was > 100 µM and the TGI (SF-295 CNS) was > 100 µM. For the same molecule, the TGI (K-562 leukemia) was > 100 µM, the TGI (NCI-H522 lung) was 47.9 µM and the TGI (M19-MEL melanoma) was 69 µM. The TGI (HT29 colon) was > 100 µM, the TGI (OVCAR-5 ovarian) was > 100 µM and the TGI (EKVX NSCLC) was > 100 µM. For the same molecule, the TGI (SK-OV-3 ovarian) was > 100 µM, the TGI (HCT-116 colon) was > 100 µM and the TGI (U251 CNS) was 51 µM. For the same molecule, the TGI (SF-268 CNS) was > 100 µM, the TGI (SNB-75 CNS) was 76.7 µM and the TGI (SNB-78 CNS) was > 100 µM. For the same molecule, the TGI (A549 NSCLC) was > 100 µM, the TGI (A498 renal) was 50.3 µM and the TGI (DLD-1 colon) was > 100 µM. For the same molecule, the TGI (KM12 colon) was > 100 µM, the TGI (ACHN renal) was > 100 µM and the TGI (RPMI-8226 leukemia) was > 100 µM. For the same molecule, the TGI (NCI-H23 lung) was > 100 µM, the TGI (UACC-62 melanoma) was > 100 µM and the TGI (SK-MEL-2 melanoma) was > 100 µM. The TGI (786-0 renal) was > 100 µM, the TGI (SNB-19 CNS) was > 100 µM and the TGI (M14 melanoma) was > 100 µM. The TGI (HOP-62 NSCLC) was > 100 µM, the TGI (HCC-2998 colon) was > 100 µM and the TGI (SN12C renal) was > 100 µM. For the same molecule, the TGI (NCI-H460 lung) was > 100 µM, the TGI (DMS 114 small cell lung) was > 100 µM and the TGI (MOLT-4 leukemia) was > 100 µM. The TGI (UACC-257 melanoma) was > 100 µM, the TGI (CCRF-CEM leukemia) was > 100 µM and the TGI (OVCAR-8 ovarian) was > 100 µM. For the same molecule, the TGI (LOX IMVI melanoma) was > 100 µM, the TGI (LXFL 529 NSCLC) was > 100 µM and the TGI (SF-539 CNS) was > 100 µM. The TGI (SK-MEL-28 melanoma) was > 100 µM, the TGI (HOP-18 NSCLC) was > 100 µM and the TGI (HCT-15 colon) was > 100 µM. The TGI (TK-10 renal) was 69.5 µM, the TGI (RXF 393 renal) was 71.1 µM and the TGI (NCI-H226 lung) was > 100 µM. The TGI (XF 498 CNS) was > 100 µM, the TGI (OVCAR-3 ovarian) was > 100 µM and the TGI (MALME-3M melanoma) was > 100 µM.
In the case of `O=C1C(=Cc2ccc([N+](=O)[O-])o2)C(=O)N(CCc2ccccc2)S(=O)(=O)N1CCc1ccccc1`, the TGI (SR leukemia) is reported as 38.4 µM, the TGI (UO-31 renal) is reported as > 100 µM and the TGI (HL-60(TB) leukemia) is reported as 41.9 µM. The TGI (KM20L2 colon) was > 100 µM, the TGI (COLO 205 colon) was 36.9 µM and the TGI (OVCAR-4 ovarian) was 30 µM. The TGI (SF-295 CNS) was > 100 µM, the TGI (K-562 leukemia) was > 100 µM and the TGI (NCI-H522 lung) was 34.5 µM. The TGI (M19-MEL melanoma) was 31.7 µM, the TGI (HT29 colon) was > 100 µM and the TGI (OVCAR-5 ovarian) was > 100 µM. The TGI (EKVX NSCLC) was > 100 µM, the TGI (SK-OV-3 ovarian) was > 100 µM and the TGI (HCT-116 colon) was 29.9 µM. The TGI (HOP-92 NSCLC) was 33.5 µM, the TGI (U251 CNS) was > 100 µM and the TGI (SF-268 CNS) was 57.8 µM. For the same molecule, the TGI (SNB-75 CNS) was > 100 µM, the TGI (SNB-78 CNS) was 94.9 µM and the TGI (A549 NSCLC) was > 100 µM. For the same molecule, the TGI (DLD-1 colon) was 34.1 µM, the TGI (KM12 colon) was > 100 µM and the TGI (ACHN renal) was 31.2 µM. The TGI (RPMI-8226 leukemia) was > 100 µM, the TGI (NCI-H23 lung) was 31.9 µM and the TGI (UACC-62 melanoma) was 31 µM. The TGI (SK-MEL-2 melanoma) was 35.2 µM, the TGI (786-0 renal) was 40.3 µM and the TGI (SNB-19 CNS) was > 100 µM. For the same molecule, the TGI (M14 melanoma) was 29 µM, the TGI (HCC-2998 colon) was > 100 µM and the TGI (SN12C renal) was > 100 µM. The TGI (NCI-H460 lung) was > 100 µM, the TGI (DMS 273 small cell lung) was > 100 µM and the TGI (MOLT-4 leukemia) was 56.6 µM. For the same molecule, the TGI (SW-620 colon) was 33.9 µM, the TGI (UACC-257 melanoma) was > 100 µM and the TGI (CCRF-CEM leukemia) was > 100 µM. For the same molecule, the TGI (OVCAR-8 ovarian) was 79.2 µM, the TGI (LOX IMVI melanoma) was 35 µM and the TGI (SK-MEL-5 melanoma) was 44.1 µM. For the same molecule, the TGI (IGROV1 ovarian) was > 100 µM, the TGI (LXFL 529 NSCLC) was 30.6 µM and the TGI (SF-539 CNS) was > 100 µM. For the same molecule, the TGI (SK-MEL-28 melanoma) was 28 µM, the TGI (HOP-18 NSCLC) was > 100 µM and the TGI (HCT-15 colon) was 30.2 µM. The TGI (TK-10 renal) was > 100 µM, the TGI (RXF 393 renal) was 34.1 µM and the TGI (NCI-H226 lung) was 41.4 µM. For the same molecule, the TGI (XF 498 CNS) was 34.9 µM, the TGI (OVCAR-3 ovarian) was 31.4 µM and the TGI (MALME-3M melanoma) was 32 µM.
